Results from patent US20010016731A1, “Methods and apparatus for accelerated orthokeratology” (priority 1998, published 2001).

Assays:
[1] = tested on: enucleated pig eyes (cornea); assay: Experiment 2: enucleated pig eyes, EYESYS topographical mapping and slit lamp; details: 0.3M sodium persulfate, UV about 30 seconds
Procedure: Second set of experiments also using enucleated pig eyes. an EYESYS topographical system was available to perform topographical mapping of the eyes before and after treatment. In addition, the EFOS Ultracure 100SS was available for UV light treatment. In a control part of the experiment, an eye was examined using a slit lamp and using the EYESYS system. Neither glutaric anhydride nor sodium persulfate were administered prior to application of UV light exposure. However, buffers were administered to simulate full treatment. […] In a second part of the experiment, a second pig eye was examined by slit lamp, and EYESYS. Topographical profiles were printed. The eye was them soaked in phosphate buffer at pH 8.5 for 2 minutes. Glutaric anhydride at 10 mg/ml was prepared in an alcohol solution and immediately administered to the eye. A contact lens was applied to the eye and held in place for 1 minute. The eye was then soaked in a sodium persulfate solution (0.3M sodium persulfate in pH 8.5 buffer) with the lens still in place. After several one (1) minute soaks in the sodium persulfate solution, the eye was exposed to UV light for about 30 seconds. The lens was removed and the eye washed with phosphate buffer, pH 7.2. The eye was then examined by slit lamp and EYESYS. […] In a third part of the experiment, a third eye was treated the same as above, expect that the glutaric anhydride was delivered in a phosphate buffer, pH 8.5, in an attempt to prevent the clouding observed using alcohol.

[2] = tested on: enucleated pig eyes (cornea)
rabbit's eyes (cornea) = assay: Experiment 3: live rabbit eye, EYESYS topography and slit-lamp; format: in vivo; details: glutaric anhydride 20 mg/ml in pH 8.5 phosphate buffer, contact lens, 0.3M sodium persulfate, UV two 30 second bursts
Procedure: Third set of experiments using a live rabbit. Both the EYESYS topographical system and EFOS Ultracure 100SS were available. The rabbit's eyes were examined by slit-lamp and EYESYS. Topographical profiles were printed. The control eye was left untreated. The experimental eye was exposed to 0.02M phosphate buffer, pH 8.5, and treated with glutaric anhydride at 20 mg/ml in pH 8.5 phosphate buffer followed by application of a contact lens. The eye was then washed with 0.02M phosphate buffer, pH 8.5 to remove residual glutaric acid, soaked with buffer containing 0.3M sodium persulfate and exposed to UV light for two 30 second bursts with the contact lens in place. Both the control and treated eyes were examined by slit-lamp and EYESYS. Topographical profiles were printed.

[3] = glutaric anhydride 10 mg/ml in alcohol solution, contact lens 1 minute
[4] = contact lens without destabilization, sodium persulfate solution then UV about 30 seconds

SMILES | EYESYS examination (eye topography) [1, 3] | slit lamp examination (corneal clouding) [1, 3] | EYESYS examination (eye topography) ([1]; glutaric anhydride delivered in phosphate buffer pH 8.5, contact lens) | slit lamp examination (corneal clouding) ([1]; glutaric anhydride delivered in phosphate buffer pH 8.5, contact lens, compared with alcohol solution) | indentations and ridges created by the lens ([2]; 10 mg/ml glutaric anhydride 1 minute, contact lens, 0.3M sodium persulfate, UV 20 seconds) | K-readings after UV treatment ([2]; 10 mg/ml glutaric anhydride 1 minute, contact lens, 0.3M sodium persulfate, UV 20 seconds, pretreatment 36.75/37.5) | slit-lamp examination of treated eye (rabbit's eyes (cornea)) | surface topography of treated eye (EYESYS) (rabbit's eyes (cornea)) | time for corneal haze to clear (rabbit's eyes (cornea)) | persistence of ridge created by the contact lens [2, 4] | slit-lamp appearance of eyes after treatment [2, 4]
O=C1CCCC(=O)O1 [glutaric anhydride] | eye topography had been changed | some cloudiness | topographical changes appearing to match the curvature of the applied contact lens | much less corneal clouding | observed immediately post-treatment and 1 hour after treatment | too steep to read and rather distorted | some corneal haze | obvious change in surface topography | about 1 hour |  | 
O=S(=O)([O-])OOS(=O)(=O)[O-].[Na+].[Na+] [sodium persulfate] |  |  |  |  |  |  |  |  |  | visible after 1 hour | clear
